Here are results for 17 molecules from PMC11765394, “Structure-Based Discovery of MolPort-137: A Novel Autotaxin Inhibitor That Improves Paclitaxel Efficacy” (International Journal of Molecular Sciences, 2025).

The target of assay [1] is T1, autotaxin (ATX) (Homo sapiens, UniProt Q13822).
T1 construct: gene ENPP2
Put plainly: biochemical. Also noted: FS-3 fluorogenic substrate hydrolysis by purified recombinant human ATX, fluorescence read-out. How it is done:
The purification of recombinant human ATX was carried out as reported earlier. The potential inhibitory effect of the hits identified through molecular modeling was assessed using the FS-3 assay, which measures fluorescence when the non-natural lipid-like FRET-established substance FS-3 (Echelon Biosciences, Salt Lake City, UT, USA) is hydrolyzed by ATX. A 60 μL volume of reaction mixture containing ATX assay buffer (pH 8.0, containing 10 μM BSA, 50 mM TRIS, […], 5 mM KCl, 1 mM CaCl2, and 1 mM MgCl2) was added to each well of a black-wall 96-well plate. Recombinant ATX was then added to achieve a final concentration of 4 nM. The compounds were dissolved in DMSO and transferred to a 96-well plate in technical triplicate. Single-dose testing was performed with a final well concentration of 10 μM, while dose–response assays involved eight different concentrations of the test compound. FS-3 was then added to achieve a concluding well strength of 1 μM, and fluorescence was quantified on a CLARIOstar Plus plate reader (BMG Labtech, Ortenberg, Baden-Württemberg, Germany) for two hours, with scans every two minutes at excitation/emission wavelengths of 485/528 nm. Percent activity was calculated relative to DMSO-treated control wells. […] Inhibition tests were conducted to target ATX-facilitated hydrolysis of FS3 (LPC homolog) using 15 compounds at 10 μM. Compounds inhibiting more than 50% of FS-3 hydrolysis were classified as hits. […] BMP-22, a known ATX inhibitor, served as a control with an IC50 of 0.2 ± 0.0 μM, consistent with reported values.

Assay [2] has as its target T1, autotaxin (ATX). Put plainly: FS-3 fluorogenic substrate hydrolysis assay with […] purified recombinant human ATX. The class given is biochemical.

Consider `Cc1cc(NC(=O)Cn2nc3c(Oc4ccccc4C)nc4ccccc4n3c2=O)ccc1Br` [MolPort-311], for which the inhibition (usually the drop in the measured response relative to a control, in per cent) at 10 µM in assay [1] is 5.23%.

Turning to `Cc1cc(C)cc(NC(=O)Cn2c(=O)nc(N3CCCC(C)C3)c3ccccc32)c1` (centres unmarked) [MolPort-616], in assay [1], the inhibition at 10 µM worked out at 26.4%.

Take `Cc1ccc(-c2noc(-c3nnn(Cc4nc(-c5ccccc5)oc4C)c3C)n2)cc1C` [MolPort-122]: in assay [1], the inhibition at 10 µM worked out at 15.5%.

For `Cc1cc(F)ccc1NC(=O)c1cnn2c(=O)c3c(n(C)c12)CCN(Cc1ccccc1)C3` [MolPort-137], in assay [1], the inhibition at 10 µM stood at 75.9%.

Turning to `Cc1cc(-n2c(SCC(=O)Nc3ccc(F)c(F)c3)nc3n[nH]c(C)c3c2=N)ccc1Cl` [MolPort-323], the inhibition at 10 µM in assay [1] was determined as 5%.

For the molecule `Cc1cccc(-n2c(SCC(=O)Nc3ccc(C)c(C)c3)nc3[nH]nc(C)c3c2=N)c1` [MolPort-144], the inhibition at 10 µM in assay [1] is -13.5%.

For the molecule `COc1ccc(NC(=O)CSc2nc(=O)c3c(C)cc(C)nc3n2-c2cccc(C)c2C)cc1` [MolPort-072], in assay [1], the inhibition at 10 µM was found to be 42%.

For `COc1cc(C=C2N=C(c3ccc(F)cc3)OC2=O)cc(I)c1OCc1cccc(C)c1` [MolPort-839], the inhibition at 10 µM in assay [1] came to 10.8%.

With `Cc1cc(C)cc(-n2c(CN3CCN(C(=O)Nc4ccccc4F)CC3)nc3cccnc32)c1` [MolPort-904], the inhibition at 10 µM in assay [1] is 29.7%.

For the molecule `Cc1cccc(NC(=O)Cn2nc3c(Oc4ccccc4C)nc4ccccc4n3c2=O)c1` [MolPort-161], in assay [1], the inhibition at 10 µM came to 5.16%.

With `COc1ccccc1-c1nc(Cn2nnc(-c3nc(-c4ccc(C)cc4)no3)c2C)c(C)o1` [MolPort-185], in assay [1], the inhibition at 10 µM is 33.7%.

Turning to `CCCCCCCCCCCCCCCc1ccc(CP(=O)(O)O)cc1` [BMP-22, reference compound], the IC50 (as a rule, the concentration that inhibits the measured activity by half) in assay [2] came to 200 nM.

Take MolPort-137: the IC50 in assay [2] came to 1600 ± 200 nM.

Regarding `Cc1ccc(NC(=O)Cn2nc3c(Oc4cccc(C)c4C)nc4ccccc4n3c2=O)cc1C` [MolPort-240], in assay [1], the inhibition at 10 µM is 2.06%.

Take `Cc1cccc(CNC(=O)c2c(O)c3cccnc3n(-c3cccc(F)c3)c2=O)c1` [MolPort-914]: the inhibition at 10 µM in assay [1] came to 7.61%.

With `CCc1cccc(NC(=O)Cn2nc3c(Oc4ccccc4C)nc4ccccc4n3c2=O)c1` [MolPort-674], the inhibition at 10 µM in assay [1] worked out at 7.1%.

Take `Cc1ccccc1NC(=O)c1nnn(Cc2nc(-c3cccc(Cl)c3)oc2C)c1C` [MolPort-495]: in assay [1], the inhibition at 10 µM stood at 27.2%.
